One series has as its system PIM025. The series can be described thus: western blot of acetylated H3/H4 in PDOs. Type of series: cell-based. The settings on record: patient-derived organoid model. The source says: (§1) Also identified was the fact that a similar increase in acetylation was found in patient-derived organoid models. […] Acetylation and deactylation of histones H3 and H4 are typically orchestrated by Histone Acetyltransferases (HATs), including the several HAT subfamilies, as well as HDACs (see, e.g., Marmorstein, R. et al. Cold Spring Harb. Perspect. Biol. 6, a018762 (2014)). Not wishing to be bound by any particular theory, Isx9 may bind directly to HATs and/or HDACs in order to activate histone acetylation and drive induction of MET and/or CSC differentiation.
(In general: In western blotting, separated proteins are transferred to a membrane and probed.)

For the next series, the system named is PA-14-13. The series can be described thus: western blot of acetylated H3/H4 in PDOs. Format: cell-based. The conditions noted are these: patient-derived organoid model.
From the text: as §1

The next series concerns Notch pathway genes. Description: RT-qPCR gene expression analysis of Notch target genes in MDAs. Format: cell-based. The conditions noted are these: 24h in HD Col1, vs vehicle. The source says:
Also assessed was how the Notch pathway responded to ISX9 treatment. […] FIG. 3A depicts the results of a RT-qPCR gene expression analysis of Notch target genes in vehicle and Isx9 treated MDAs.
A general note: In qPCR the cycle at which signal appears reflects the starting amount.

Series [1] relates to MDAs. The series can be described thus: flow cytometry of CDH1+ MDA cells in 2D and 3D Collagen I densities. Format: cell-based. The method, then: To determine whether induction of MET was specific to the HD Collagen I condition or generally applicable to all ISX9-treated cells in a 3D Collagen condition, CDH1^+ cells in 2D, and multiple 3D Collagen I densities were flow-sorted (1 mg/mL, 2.5 mg/mL, and 6 mg/mL Col1) (FIG. 4F, FIG. 4G).) FIG. 4F depicts fluorescence profiles of CDH1 in MDAs treated with vehicle or ISX9 for 7 days in 2D TC, LD Col1, MD Col1, or HD Col1 conditions. FIG. 4G depicts a flow cytometry analysis of CDH1^+ MDA cells treated with vehicle or ISX9 in 2D TC, LD Col1, MD Col1, or HD Col1.

The test system of series [2] is MDAs. Description: CellTiter-Fluor metabolic activity assay. The conditions noted are these: 2D, 10-40 μM. Type of series: cell-based. An excerpt: (§2) FIG. 7C depicts the metabolic activity, cytotoxicity, and relative CD24 expression dose-response to ISX9.
Series [3] deals with Notch-activated epicardium-derived cells (NECs). The conditions noted are these: after myocardial infarction; cited from earlier work.
Series [4] concerns MDAs. The series can be described thus: flow cytometry of CD44+/CD24- CSC population in MDAs. Format: cell-based. An excerpt:
To further assess differentiation status, RT-PCR and flow cytometry (FC) was used to quantify expression of the CSC stemness biomarker signature CD44^+/CD24^− in MDAs. At the population level, MDAs increased CD24 mRNA expression ˜14-fold with ISX9 treatment after 7 days (FIG. 3E). FIG. 3E depicts RT-qPCR of CD24 expression in MD As treated with vehicle or ISX9. […] (FIG. 3F, FIG. 3G). FIG. 3F and FIG. 3G depicts flow cytometry analysis of MDAs treated with vehicle or ISX9.
Cells in 2D tissue culture and HD Collagen I were treated with ISX9 daily for 7 days, dissociated and flow-sorted. […] These figures depict fluorescence profiles of CD44/CD24 in MDAs treated with vehicle or ISX9 for 7 days in (FIG. 4A) 2D TC or (FIG. 4B) HD Col1. FIG. 4C depicts a flow cytometry analysis of CD44^+/CD24^− MDA cells treated with vehicle or ISX9.

For series [5], the system named is MDAs. The series can be described thus: CytoTox-Fluor cytotoxicity assay. Format: cell-based. The conditions noted are these: 2D, 1-40 μM.
From the text: as §2

Series [6] relates to MDAs. Description: western blot of EMT markers E-cadherin and Vimentin. Format: cell-based. An excerpt:
Given the strong phenotypic changes induced by ISX9 in HD Col1 (FIG. 2), this example also assessed the differentiation activity of ISX9 by characterizing Epithelial-to-Mesenchymal (EMT) status using western blot (WB) analysis of E-cadherin and vimentin levels. […] FIG. 3D depicts WB of EMT markers E-cadherin and Vimentin in cancer cell lines treated with vehicle or ISX9.
To understand whether ISX9 treatment could induce Mesenchymal-to-Epithelial Transition (MET), western blotting (WB) was performed for the epithelial marker E-Cadherin (CDH1) and the Mesenchymal marker Vimentin (Vim) on 2D and HD Collagen-treated tumor cells (FIG. 4D). FIG. 4D depicts a western blot analysis of EMT markers E-cadherin and Vimentin in MDAs treated with vehicle or ISX9 for 7 days in 2D TC or HD Col1.

In another series the test system is MDA-MB-231s. Description: CD24 mRNA expression in 2D (differentiation screening). Format: cell-based. On the procedure: FIG. 3H depicts relative CD24 mRNA expression. CD24 expression was an early indicator of response to ISX9 in 2D across several TNBC cell lines. Treatment screening of several different TNBC cell lines with ISX9 in 2D for 48h yielded four responders, as determined by CD24 mRNA expression (FIG. 3H).
These analogs were screened for their potential to differentiate MDA-MB-231s, yielding at least one new hit, CR-1 (˜98% similarity), which induced a ˜6-fold upregulation of CD24 at a concentration of 200 μM at 48h in 2D (FIG. 6).

The test system of a further series is PA-14-13 PDOs. The series can be described thus: FACS analysis of CD44+/CD24- CSCs and CDH1+ cells in PDOs. Format: cell-based. The source says:
(§3) These figures depict flow cytometry analysis of CD44*/CD24 CSC in (FIG. 8F and FIG. 8G) PIM025 PDOs and (FIG. 8H and FIG. 8I) PA-14-13 PDOs treated with vehicle or ISX9.
(§4) FIG. 8J and FIG. 8K depict a flow cytometry analysis of CDH1^+ cells in PIM025 PDOs treated with vehicle or ISX9. FIG. 8L and FIG. 8M depict a flow cytometry analysis of CDH1^+ cells in PA-14-13 PDOs treated with vehicle or ISX9.
Background: In flow cytometry, cells or beads pass a laser one at a time.

The subject of a further series is PIM-025 PDOs. The description is as above. Type of series: cell-based.
From the text: as §3, §4

Here are results for one molecule from US20250362286A1, “SCREENING MODELS AND METHODS OF CANCER TREATMENT” (The Regents of the University of California, priority 2022, published 2025).

SMILES strings stand for the structures. Entries after “also recorded” stand apart in the source; their conditions may differ.

Consider `O=C(NC1CC1)c1cc(-c2cccs2)on1` [ISX9, Isoxazole 9], for which the “acetylated H3/H4 expression” value is given as “slight increase in acetylated H3/H4 expression” in the series with PIM025 and “large increase in acetylated H3/H4 expression” in the series with PA-14-13. Also, the “expression of Notch pathway genes” value in the series on Notch pathway genes is given as “significantly increased”. Moreover, in the series on MDAs [1] (1 mg/mL and 2.5 mg/mL Col1, 7 days), the “CDH1+ induction” value was “unable to re-express CDH1^+to similar levels”. For the same molecule, the “effect on CDH1+ cells” value in the series on MDAs [1] (2D, 7 days) was “small effect”. Further, in the series with MDAs [1] (HD (6 mg/mL) Col1, 7 days), the “population of CDH1+ cells” value is given as “highest population of CDH1^+ cells”. Moreover, in the series on MDAs [2], the metabolic activity entry was “decrease in metabolic activity”. Besides, the “fibrosis and ventricular functional decline after MI” value in series [3] is “failed to mitigate fibrosis or avert ventricular functional decline after MI”. The “population of CD44+/CD24- CSCs” value in the series on MDAs [4] (2D and HD Collagen I, treated daily for 7 days) is reported as “reducing the population of CD44^+/CD24^− CSCs to a similar degree”. In the series on MDAs [4] (with treatment, vehicle ˜100%), the “CD44+/CD24- cells, share of the population” value is reported as ~67%. Besides, the cytotoxicity result in the series on MDAs [5] was “without any observable increase in cytotoxicity”. The “effect on MET markers E-Cadherin and Vimentin (WB)” value in the series on MDAs [6] (2D-treated cells, 7 days) is on record as “no effect on either MET marker”. In the series on MDAs [6] (7 days in HD Col1), the “E-cadherin expression (WB)” value is on record as “increased E-cadherin expression; also recorded: increase in E-Cadherin”. In addition, in the series on MDAs [6] (7 days in HD Col1), the “Vimentin expression (WB)” value is given as “reduced Vimentin expression; also recorded: decrease in Vimentin”. Moreover, in the series on MDA-MB-231s (48h), the “CD24 mRNA expression (FC)” value is ~31.6. For the same molecule, the “CD24 mRNA dose-response” value in the series on MDA-MB-231s (concentration range 1-40 μM) is “upregulation of CD24 mRNA”. Also, the “CD44+/CD24- CSCs (FACS)” value with PA-14-13 PDOs (after 6 days of treatment) and with PIM-025 PDOs (after 6 days of treatment) was “reduction in CD44+/CD24− CSCs” in each case. The “CDH1+ cells (FACS)” value in the series on PA-14-13 PDOs (vs vehicle) was “enrichment in CDH1^+ cells”; in the series on PIM-025 PDOs (vs vehicle), “slight reduction in CDH1^+ cells”.
